This is an account of results in patent publication US10729655B2, “Orally disintegrating tablets” (AstraZeneca AB, priority 2016, dated 2020).

Data set [1] can be described thus: Mercury intrusion porosimetry (pore volume, pore size distribution). In kind it is physicochemical. On the procedure:
The pore volume and the pore size distribution were determined using mercury intrusion porosimetry (Micromeritics AutoPore III 9410). The determination was performed within the pore diameter interval 115 μm≥ϕ≥0.0030 μm (30 Å). The surface tension and the contact angle of mercury are set to 485 mN/m and 130°, respectively. Blank correction has been used to compensate for compaction of parts of the penetrometer system at high pressures. The test materials used were: ticagrelor granules (“3606”), final tablet blend (“3606 FB”); F-melt type C granules (“F-melt”); Ticagrelor particles from supplier 1 (“AZ”); Ticagrelor particles from supplier 2 (“DSM”); Ticagrelor particles from supplier 3 (“Omnichem”).
One of the penetrometers used for analysis of the granules was used for the reference test. The result gave a cumulative pore volume of 0.55 cm^3/g and a median pore diameter (based on volume) of 73 Å. The reference values are 0.56±0.02 cm^3/g and 75±5 Å, respectively.

Data set [2] in a line: Relative bioavailability study (clinical study A), plasma pharmacokinetics of ticagrelor and AR-C124910XX. In kind it is in vivo, healthy male and female subjects. On the procedure: A relative bioavailability study (hereafter referred to as clinical study A) compared the orodispersible tablet of Example 7, administered with water (after oral dispersion) and without water, to a film-coated tablet containing 90 mg of ticagrelor. In clinical study A the orodispersible tablet was also suspended in water and administered through a nasogastric tube and compared to the film-coated tablet.
This study was an open-label, randomised, four-period, four-treatment, crossover study in healthy male and female of non-childbearing potential subjects, performed at a single study centre. The study was comprised of: • A screening period of maximum 21 days; • Four treatment periods during which subjects were resident prior to the evening meal the night before dosing with ticagrelor (Day −1) until at least 48 hours after dosing; discharged on the morning of Day 3; and • A final visit within 5 to 10 days after the last administration of ticagrelor.
Subjects received single doses of ticagrelor in 4 different ways under fasted conditions. Following an overnight fast of at least 10 hours, each subject received a single dose of each treatment on 4 occasions, respectively.
The PK parameters were assessed for ticagrelor (parent) and its active metabolite AR-C124910XX based on plasma concentrations.
Pharmacokinetic parameters were summarised for each treatment using descriptive statistics. Where possible, the following descriptive statistics were presented: n, geometric mean, geometric CV, arithmetic mean, arithmetic standard deviation, median, minimum and maximum. For tmax, only n, median, minimum and maximum were presented.
Bioavailability comparison of treatments A, B and C (test product) and D (reference product) were assessed on the ratio of log-transformed Cmax, AUC0-t, and AUC of both ticagrelor and AR-C124910XX using a 2-sided 90% confidence interval (CI) approach based on an analysis of variance (ANOVA) model including fixed effects for treatment, sequence, period and subject within sequence.
All PK parameters were log-transformed prior to analysis. The estimated treatment differences and the 90% CIs on the log scale were back transformed to obtain the geometric mean ratios for each pair of treatments.

The nature of data set [3]: Powder flow indices (Carr's index, Hausner ratio). In kind it is physicochemical. The conditions noted are these: ticagrelor powders. The text has this: Ticagrelor powders are characterised by poor flowability, for example as indicated by a large Hausner ratio (tap density/bulk density ˜1.8-2.0).
A short description of data set [4]: Focused Beam Reflectance Measurement (FBRM) of granules in dissolution bath. In kind it is physicochemical. The conditions noted are these: granules stored at 40° C. and 75% RH for one month. On the procedure:
Focused Beam Reflectance Measurement (FBRM) analyses were conducted in dissolution studies. The FBRM technique involves the insertion of a probe directly into a process stream, at an angle, to ensure particles can flow easily across the probe window where the measurement takes place. A laser beam is launched down the probe tube through a set of optics and focused to a tight beam spot at the sapphire window. The optics rotate at a fixed speed (typically 2 m/s) resulting in the beam spot rapidly scanning across particles as they flow past the window. As the focused beam scans across the particle system, individual particles or particle structures will backscatter the laser light to the detector. These distinct pulses of backscattered light are detected, counted, and the duration of each pulse is multiplied by the scan speed to calculate the distance across each particle. This distance is defined as the chord length, a fundamental measurement of the particle related to the particle size, and a precise and highly sensitive chord length distribution can be reported in real time, thus tracking how particle size and count change over time. […]
The integration time was set to 5 seconds. […] From that dataset kinetic curves were calculated showing different size fractions and the fraction 40-100 μm was the fraction selected for comparison. […]

The mark [5] stands for this setting: pores <8, post-storage 1 month at 40° C./75% RH.
[6] abbreviates: pores >8, post-storage 1 month at 40° C./75% RH.
The mark [7] stands for this setting: plasma, single 90 mg ticagrelor dose, fasted, range across treatments.

SMILES strings stand for the structures.

As usually defined, the Tmax is the time from dosing to the highest level.

As to `CCCSc1nc(N[C@@H]2C[C@H]2c2ccc(F)c(F)c2)c2nnn([C@@H]3C[C@H](OCCO)[C@@H](O)[C@H]3O)c2n1` [Omnichem], the “Median pore diameter (vol)” value turned out to be 0.5 μm in data set [1] (setting [5]); 0.5 μm in data set [1] (pores <8, pre-storage); 36 μm in data set [1] (setting [6]); 35 μm in data set [1] (pores >8, pre-storage). Moreover, the Pore area in data set [1] (setting [5]) was 9 m^2/g; in data set [1] (pores <8, pre-storage), 12 m^2/g; in data set [1] (setting [6]), <0.1 m^2/g; in data set [1] (pores >8, pre-storage), <0.1 m^2/g. The Pore volume in data set [1] (setting [5]) is 0.18 cm^3/g; in data set [1] (pores <8, pre-storage), 0.28 cm^3/g; in data set [1] (setting [6]), 0.61 cm^3/g; in data set [1] (pores >8, pre-storage), 0.53 cm^3/g.
On to `CCCSc1nc(N[C@@H]2C[C@H]2c2ccc(F)c(F)c2)c2nnn([C@@H]3C[C@H](OCCO)[C@@H](O)[C@H]3O)c2n1` [DSM], for which the “Median pore diameter (vol)” value was 1.5 μm in data set [1] (setting [5]); 1.2 μm in data set [1] (pores <8, pre-storage); 20 μm in data set [1] (setting [6]); 19 μm in data set [1] (pores >8, pre-storage). Moreover, the Pore area is given as 12 m^2/g in data set [1] (setting [5]); 13 m^2/g in data set [1] (pores <8, pre-storage); 0.1 m^2/g in data set [1] (setting [6]); 0.1 m^2/g in data set [1] (pores >8, pre-storage). Besides, the Pore volume came out at 0.29 cm^3/g in data set [1] (setting [5]); 0.28 cm^3/g in data set [1] (pores <8, pre-storage); 0.64 cm^3/g in data set [1] (setting [6]); 0.59 cm^3/g in data set [1] (pores >8, pre-storage).
For `CCCSc1nc(N[C@@H]2C[C@H]2c2ccc(F)c(F)c2)c2nnn([C@@H]3C[C@H](O)[C@@H](O)[C@H]3O)c2n1` [AR-C124910XX], the median tmax in data set [2] (plasma, single 90 mg ticagrelor dose, fasted, across OD (with water, without water, NG tube) and IR tablets) was in the range of 2 to 3 h. Besides, the “terminal mean t1/2λz” value in data set [2] (setting [7]) was in the range of 9.35 to 9.48 h. Moreover, in data set [2] (range across treatments), the “Plasma metabolite AUC as % of plasma ticagrelor AUC” value was 38.2-40.5% and the “Plasma metabolite Cmax as % of plasma ticagrelor Cmax” value is 27.1-30.0%.
Consider `CCCSc1nc(N[C@@H]2C[C@H]2c2ccc(F)c(F)c2)c2nnn([C@@H]3C[C@H](OCCO)[C@@H](O)[C@H]3O)c2n1` [ticagrelor, (1S,2S,3R,5S)-3-[7-{[(1R,2S)-2-(3,4-difluorophenyl)cyclopropyl]amino}-5-(propylthio)-3H[1,2,3]-triazolo[4,5-d]pyrimidin-3-yl]-5-(2-hydroxyethoxy)cyclopentane-1,2-diol], for which, in data set [3], the “Hausner ratio (tap density/bulk density)” value is 1.8-2.0. In addition, the time to peak (Tmax) in data set [2] (both sexes, human, oral, plasma, single 90 mg ticagrelor dose, fasted, across OD (with water, without water, NG tube) and IR tablets, read-out: median tmax) is ~2 h. In addition, the “terminal mean t1/2λz” value in data set [2] (setting [7]) is 7.99 to 8.21 h.
Turning to `CCCSc1nc(N[C@@H]2C[C@H]2c2ccc(F)c(F)c2)c2nnn([C@@H]3C[C@H](OCCO)[C@@H](O)[C@H]3O)c2n1` [AZ], the “Particle dissolution by FBRM after storage compared with non-stored granules” value in data set [4] is “slower particle dissolution”. For the same molecule, the “Median pore diameter (vol)” value in data set [1] (setting [5]) is 1.1 μm; in data set [1] (pores <8, pre-storage) it was 0.9 μm; in data set [1] (setting [6]), 27 μm; in data set [1] (pores >8, pre-storage), 24 μm. The Pore area in data set [1] (setting [5]) stood at 14 m^2/g; in data set [1] (pores <8, pre-storage) it was 14 m^2/g; in data set [1] (setting [6]) it was 0.1 m^2/g; in data set [1] (pores >8, pre-storage) it was 0.1 m^2/g. The Pore volume amounted to 0.23 cm^3/g in data set [1] (setting [5]); 0.23 cm^3/g in data set [1] (pores <8, pre-storage); 0.69 cm^3/g in data set [1] (setting [6]); 0.62 cm^3/g in data set [1] (pores >8, pre-storage).
